This is an account of results in PMC11626197 (Proceedings of the National Academy of Sciences of the …, 2024).

Numbered stars: 1 amine (or outer) side, 2 acyl side, 3 side chain; on linkers, the order of the positions; unused ones are H or OH. Bridge positions count the residues as written; N and C are the ends. Square brackets hold non-standard residues; d marks the D form. Ends that are not written are not given here. Peptide text beside a SMILES is read from it. ξ: configuration not given here. ξLeu(ψCOCO) = CC(C)CC(N[*:1])C(=O)C(=O)[*:2]; X1 = CSCCC(N[*:1])C(=O)C(=O)[*:2]

One data set has as its system Huh7. Nature of the data set: Cell detachment in Huh7 cells. Type of data set: cell-based. The following applies: Huh7 cell line.
Data set [1] relates to lymphocytic choriomeningitis virus (LCMV). The following applies: for IC50: 1 h.
For data set [2], the system named is herpes simplex virus (HSV). The following applies: for IC50: 42 h; for antiviral activity: HSV, result in words.
For the next data set, the system named is MC57G fibroblast cells. The following applies: for cytotoxic effects: LIVE/DEAD staining, 2 days post-treatment.
The subject of a further data set is HeLa. In words: Cell detachment in HeLa cells. Type of data set: cell-based. The following applies: HeLa cell line.
Data set [3] concerns the target T1, human neutrophil elastase (Homo sapiens, UniProt P08246).
T1 sequence (P08246 30-267): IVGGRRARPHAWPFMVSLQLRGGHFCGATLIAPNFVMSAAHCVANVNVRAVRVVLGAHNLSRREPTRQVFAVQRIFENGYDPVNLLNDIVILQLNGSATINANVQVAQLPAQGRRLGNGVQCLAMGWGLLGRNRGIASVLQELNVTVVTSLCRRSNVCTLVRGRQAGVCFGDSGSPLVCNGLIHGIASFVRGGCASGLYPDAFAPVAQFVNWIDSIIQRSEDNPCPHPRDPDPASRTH
Nature of the data set: Human neutrophil elastase inhibition assay. The note with it: for protease inhibitory activity: human neutrophil elastase, result in words. Type of data set: biochemical.

In another data set the target is human cathepsin B (Homo sapiens, UniProt P07858). Nature of the data set: Cathepsin B inhibition assay. The note with it: for protease inhibitory activity: cathepsin B, result in words. Type of data set: biochemical.
For the next data set, the system named is influenza A virus (IAV). In words: Antiviral assay against IAV. The note with it: result in words. Type of data set: cell-based, IAV strain A/WSN/1933 (H1N1).
The target in the next data set is chymotrypsin (Bos taurus, UniProt P00766). In words: Chymotrypsin inhibition assay. Type of data set: biochemical. The following applies: for protease inhibitory activity: chymotrypsin, result in words.

What is called IC50 is the midpoint of a concentration-inhibition curve. Read a low IC50 as greater potency in that assay. Regarding `CC[C@H](C)[C@H](N)C(=O)N[C@@H](CC(N)=O)C(=O)N[C@@H](C)C(=O)N[C@H](C(=O)NCC(=O)N[C@@H](CCC(N)=O)C(=O)N[C@@H](CCCNC(=N)N)C(=O)N[C@H](C(=O)N[C@@H](CC(=O)O)C(=O)N[C@@H](CO)C(=O)N[C@@H](CO)C(=O)N[C@H](C(=O)N[C@@H](Cc1ccccc1)C(=O)N[C@H](C(=O)N[C@@H](Cc1c[nH]cn1)C(=O)N[C@H]1CSSC[C@@H](C(=O)NCC(=O)N[C@H](C(=O)N[C@@H](C)C(=O)NC(CC(C)C)C(=O)C(=O)NCC(=O)N[C@@H](CO)C(=O)N[C@H](C(=O)N[C@H](C(=O)N[C@@H](CC(=O)O)C(=O)N2CCC[C@H]2C(=O)N[C@@H](Cc2c[nH]cn2)C(=O)N[C@@H](CCCNC(=N)N)C(=O)N[C@@H](Cc2ccccc2)C(=O)N[C@@H](CC(=O)O)C(=O)N[C@@H](CCSC)C(=O)N[C@@H](CC(C)C)C(=O)N2CCC[C@H]2C(=O)O)[C@@H](C)CC)C(C)C)C(C)C)NC(=O)[C@H](C(C)C)NC(=O)[C@H](Cc2ccccc2)NC(=O)[C@H](Cc2ccccc2)NC(=O)[C@H](CC(=O)O)NC1=O)[C@@H](C)O)C(C)C)[C@@H](C)CC)[C@@H](C)O` (stereo partly shown) [Compound 4, RasA*-Tyn] (H-INATGQRIDSSVFTHCDFFVCGVA[ξLeu(ψCOCO)]GSVIDPHRFDMLP-OH; disulfide 16-21; N-terminus assumed), the cell detachment result in the data set with Huh7 and in the data set on HeLa was “not detected” in each case. Further, the IC50 in [1] was determined as 15.2 µM; in data set [2] it was 28.8 µM. Besides, the cytotoxic effects result in the data set on MC57G fibroblast cells is given as “no significant cytotoxic effects”. For the same compound, the “concentration at which cell detachment from the assay plates was observed” value in the data set with MC57G fibroblast cells (low levels / slight detachment) is reported as “above 50 µM”.

For the compound `CC[C@H](C)[C@H](N)C(=O)N[C@@H](CC(N)=O)C(=O)N[C@@H](C)C(=O)N[C@H](C(=O)NCC(=O)N[C@@H](CCC(N)=O)C(=O)N[C@@H](CCCNC(=N)N)C(=O)N[C@H](C(=O)N[C@@H](CC(=O)O)C(=O)N[C@@H](CO)C(=O)N[C@@H](CO)C(=O)N[C@H](C(=O)N[C@@H](Cc1ccccc1)C(=O)N[C@H](C(=O)N[C@@H](Cc1c[nH]cn1)C(=O)N[C@H]1CSSC[C@@H](C(=O)NCC(=O)N[C@H](C(=O)N[C@@H](C)C(=O)N[C@@H](CC(C)C)C(=O)N[C@@H](Cc2ccc(O)cc2)C(=O)NCC(=O)N[C@@H](CO)C(=O)N[C@H](C(=O)N[C@H](C(=O)N[C@@H](CC(=O)O)C(=O)N2CCC[C@H]2C(=O)N[C@@H](Cc2c[nH]cn2)C(=O)N[C@@H](CCCNC(=N)N)C(=O)N[C@@H](Cc2ccccc2)C(=O)N[C@@H](CC(=O)O)C(=O)N[C@@H](CCSC)C(=O)N[C@@H](CC(C)C)C(=O)N2CCC[C@H]2C(=O)O)[C@@H](C)CC)C(C)C)C(C)C)NC(=O)[C@H](C(C)C)NC(=O)[C@H](Cc2ccccc2)NC(=O)[C@H](Cc2ccccc2)NC(=O)[C@H](CC(=O)O)NC1=O)[C@@H](C)O)C(C)C)[C@@H](C)CC)[C@@H](C)O` [Compound 6, RasA*] (H-INATGQRIDSSVFTHCDFFVCGVALYGSVIDPHRFDMLP-OH; disulfide 16-21; N-terminus assumed), the protease inhibitory activity entry in [3] is “did not exhibit any protease inhibitory and antiviral activity”; on human cathepsin B, “did not exhibit any protease inhibitory and antiviral activity”; at chymotrypsin it was “did not exhibit any protease inhibitory and antiviral activity”. Also, the antiviral activity result was “did not exhibit any protease inhibitory and antiviral activity” in data set [1]; “did not exhibit any protease inhibitory and antiviral activity” in the data set on influenza A virus (IAV); “did not exhibit any protease inhibitory and antiviral activity” in data set [2]. Also, the IC50 in [1] and in data set [2] was > 200 µM throughout.

As for “GTVTGSILTPIDYGCFNPFLCSVAMYGGVIDPIRFPNAWREL (disulfide 15-21) [Compound 5, G-RcsA*]”, the protease inhibitory activity result in [3] was “did not exhibit any protease inhibitory and antiviral activity”; at human cathepsin B, “did not exhibit any protease inhibitory and antiviral activity”; on chymotrypsin, “did not exhibit any protease inhibitory and antiviral activity”. Further, the antiviral activity result in data set [1] is “did not exhibit any protease inhibitory and antiviral activity”; in the data set on influenza A virus (IAV), “did not exhibit any protease inhibitory and antiviral activity”; in data set [2], “did not exhibit any protease inhibitory and antiviral activity”. The IC50 in data set [1] and in data set [2] was > 200 µM in each case.

In the case of “GTVTGSILTPIDYGCFNPFLCSVA[X1]GGVIDPIRFPNAWREL (disulfide 15-21) [Compound 3, G-RcsA*-Tyn]”, the IC50 in data set [3] was determined as 5.76 µM; in [1] it was 37 µM; on human cathepsin B it was 3.74 µM; against chymotrypsin, 9.2 µM; in data set [2], 69.7 µM. Also, the cytotoxic effects result with MC57G fibroblast cells was “no significant cytotoxic effects”.
